Measured values taken from patent US6465476B1, “Immuno-modulator exhibiting antimicrobial and anti-mycrobacterial activities, method for producing the same and pharmaceutical preparation” (priority 1997, dated 2002).
Read-outs that look alike come from different tables or passages of the source.

Key:
[1] = due to impurities contained therein; cited from earlier work
[2] = tested on: antibody-forming cells (AFC) in the spleens; test: Antibody-forming cells in the spleen, immunodeficiency caused by irradiation (Jeme-Nordin's procedure); type: in vivo, mice F1 (CBA×C57BL/6); settings: irradiated mice 4 Gy
Experimental: Determination of immunotropic activity of isophonum was carried out. Immunotropic activity of isophonum was determined on a model of immunodeficiency caused by irradiation. To create an immunodeficient state the mice F1 (CBA×C57BL/6) were irradiated with gamma-rays on a radioterapeutic apparatus in a dose of 4 Gy (Gy is the irradiation unit gray) at an irradiation dose power of 0.55 Gr/min. The number of antibody-forming cells (AFC) in the spleens was calculated by Jeme-Nordin's procedure. Isophonum and diuciphonum were introduced per os over a wide range of doses. The investigation results are represented in Table 1.

[3] = tested on: antibody-forming cells (AFC) in the spleen; test: Humoral immunity, localized-in-gel hemolysis, AFC accumulation in spleen of immunized mice; type: in vivo, hybrid mice F1 (CBA/C57BL6)
Experimental: The influence on humoral immunity was studied using the method of localized-in-gel hemolysis. […] On the 5th day the number of antibody-forming cells (AFC) in the spleen of the mice was calculated and the immune response stimulation index was determined as the ratio of AFC number in the test group to the AFC number in the control group. The respective data are represented in Table 2.

[4] = tested on: human mononucleator cells (T-lymphocytes); test: Proliferation of T-lymphocytes in cell culture in vitro (3H-thymidine); type: cell-based
Experimental: The influence of the test compound on the proliferation of T-lymphocytes was studied on a model in vitro. To this end human mononucleator cells were preliminarily incubated during three hours in the presence of different concentrations of each test substance. Each test substance was studied over a wide range of its concentrations, that is from […]. As a negative control there was added a physiological 0.9 percent solution of NaCl. The results of the influence of novel compoubds on the intensity of proliferation of human lymphocytes in the cell culture in vitro are represented in Table 3.

macrophages = test: Phagocytic activity of macrophages (clearance from blood); type: in vivo, mice; settings: 500 μg per mouse per os
Description: The influence of the preparations in question on the phagocytic activity of macrophages was studid from clearence of the carcass in blood taken from the retroorbital sinus of mice that received the preparations per os. The results were estimated on the phagocytic index α (see Table 4).

[5] = tested on: tuberculosis mycobacteria H37Rv (USSR H37Rv); type: in vivo, tuberculosis mycobacteria; mice of the CBA line; settings: USSR H37Rv
Tubazide-resistent H37Rv = type: in vivo, tuberculosis mycobacteria; mice of the CBA line; settings: Tubazide-resistent H37Rv
[6] = tested on: Kyp-4 strain of leprosy mycobacteria; test: Antileprous activity in mice infected by Shepard's procedure; type: in vivo, leprosy mycobacteria; male mice of the CBA line; settings: after six months; isophonum dose 2.5 mg/kg
Description: Antileprous activity of isophonum as compared with that of diuciphonum was studied on male mice of the CBA line infected with the laboratory Kyp-4 strain of leprosy mycobacteria taken in an amount of 5000 and introduced intraplantedly by Shepard's procedure. The experiment lasted six months from the 7th of February to the […] 1996. Observed were 5 groups of mice with 15 mice in each group. All the animals were kept under the same conditions of the vivarium on a standard diat.
The first group (controls): during six months of the experiment the mice received 0.5 ml of a starch suspension through a probe five times a week. After six months the animals were killed through a cervical dislocation of backbone, the organs were subjected to a bacterioscopic investigation, no pathologic deviations characteristic of any of the groups were found. The bacteriscopic investigation of the infected site was carried out by grinding the mouse foot in 2 ml of 0.1 percent solution of albumin, making a smear from 0.01 ml of the suspenstion and painting it by Ziel-Nielson's procedure and counting the number of leprosy micobacteria in 60 fields of vision to determine the number of micobacteria per mouse in each group.

[7] = tested on: agent of leprosy (mycobacteria of leprosy); settings: leprosy patients
[8] = in vivo; cited from earlier work
[9] = after three months, 0.6 g daily

Cc1[nH]c(=O)[nH]c(=O)c1S(=O)(=O)NNC(=O)c1ccncc1 [N-(6-methyl-2,4-dioxo-1,2,3,4-tetrahydro-5-pyrimidinsulfon)-N′-isonicotinoylhydrazide]
behaviour on prolonged storage [1]: does not withstand prolonged storage conditions

Cc1[nH]c(=O)[nH]c(=O)c1S(=O)(=O)Nc1ccc(S(=O)(=O)c2ccc(NS(=O)(=O)c3c(C)[nH]c(=O)[nH]c3=O)cc2)cc1 [Diuciphonum, reference compound]
AFC-number in the spleen ([2]; 10 μg per mouse per os): 768 ± 123
Immune response stimulation index ([2]; 10 μg per mouse per os): 2.5 ± 0.2
AFC-number in the spleen ([2]; 100 μg per mouse per os): 870 ± 119
Immune response stimulation index ([2]; 100 μg per mouse per os): 2.9 ± 0.12
AFC-number in the spleen ([2]; 1000 μg per mouse per os): 647 ± 64
Immune response stimulation index ([2]; 1000 μg per mouse per os): 2.1 ± 0.2
AFC-number in the spleen ([3]; 500 μg per mouse per os in starch suspension, 5th day after immunization): 2250 ± 125
Immune response stimulation index ([3]; 500 μg per mouse per os, ratio of AFC test group to control group): 4.5
Intensity of involvement of 3H-thymidine in DNA of cultivated cells, PHA-activated ([4]; 0.01 μg/ml): 22811 impulse per minute
Intensity of involvement of 3H-thymidine in DNA of cultivated cells, Spontaneous ([4]; 0.01 μg/ml): 860 impulse per minute
Intensity of involvement of 3H-thymidine in DNA of cultivated cells, PHA-activated ([4]; 0.03 μg/ml): 24214 impulse per minute
Intensity of involvement of 3H-thymidine in DNA of cultivated cells, Spontaneous ([4]; 0.03 μg/ml): 850 impulse per minute
Intensity of involvement of 3H-thymidine in DNA of cultivated cells, PHA-activated ([4]; 0.1 μg/ml): 28946 impulse per minute
Intensity of involvement of 3H-thymidine in DNA of cultivated cells, Spontaneous ([4]; 0.1 μg/ml): 804 impulse per minute
Intensity of involvement of 3H-thymidine in DNA of cultivated cells, PHA-activated ([4]; 1 μg/ml): 26400 impulse per minute
Intensity of involvement of 3H-thymidine in DNA of cultivated cells, Spontaneous ([4]; 1 μg/ml): 799 impulse per minute
Intensity of involvement of 3H-thymidine in DNA of cultivated cells, PHA-activated ([4]; 5 μg/ml): 20150 impulse per minute
Intensity of involvement of 3H-thymidine in DNA of cultivated cells, Spontaneous ([4]; 5 μg/ml): 800 impulse per minute
Phagocytic index (macrophages): 5.18 ± 0.04
Phagocytic index, percent of controls (macrophages; controls 100%): (123%)
Damage index ([5]; dose not given): 2.31 ± 0.24
Life duration ([5]; dose not given): 25.1 ± 2.8
Weight of the lung ([5]; dose not given): 580.4 ± 50.7
Damage index (Tubazide-resistent H37Rv; dose not given): 2.27 ± 0.19
Life duration (Tubazide-resistent H37Rv; dose not given): 24.9 ± 2.4
Weight of the lung (Tubazide-resistent H37Rv; dose not given): 602.7 ± 70.2
Number of mycobacteria in the foot × 10^6 [6]: 0.048 ± 0.007 × 10^6
Percentage of infected animals [6]: 60%
B-lymphocytes ([7]; after one month, 0.6 g daily): 8.4 ± 0.6
T-helpers ([7]; after one month, 0.6 g daily): 32.4 ± 2.0
T-lymphocytes ([7]; after one month, 0.6 g daily): 50.5 ± 2.1
T-suppressors ([7]; after one month, 0.6 g daily): 20.1 ± 0.6
Th/Ts (immunoregulatory index) ([7]; after one month, 0.6 g daily): 1.6 ± 0.1
B-lymphocytes [7, 9]: 9.0 ± 0.3
T-helpers [7, 9]: 36.9 ± 2.3
T-lymphocytes [7, 9]: 55.4 ± 2.4
T-suppressors [7, 9]: 20.0 ± 0.5
Th/Ts (immunoregulatory index) [7, 9]: 1.8 ± 0.4
B-lymphocytes ([7]; before treatment): 6.3 ± 0.3
T-helpers ([7]; before treatment): 16.8 ± 0.2
T-lymphocytes ([7]; before treatment): 30.4 ± 0.4
T-suppressors ([7]; before treatment): 17.0 ± 0.4
Th/Ts (immunoregulatory index) ([7]; before treatment): 1.0
toxicity [8]: 2600 mg/kg

NNC(=O)c1ccncc1 [Tubazide]
Damage index ([5]; 100 μg per mouse): 2.16 ± 0.17
Weight of the lung ([5]; 100 μg per mouse): 586.4 ± 47.2
Damage index ([5]; 200 μg per mouse): 2.11 ± 0.18
Life duration ([5]; 200 μg per mouse): 32.2 ± 4.4
Weight of the lung ([5]; 200 μg per mouse): 550.6 ± 46.4
Damage index (Tubazide-resistent H37Rv; 100 μg per mouse): 2.44 ± 0.24
Life duration (Tubazide-resistent H37Rv; 100 μg per mouse): 23.7 ± 2.4
Weight of the lung (Tubazide-resistent H37Rv; 100 μg per mouse): 628.7 ± 48.4
Damage index (Tubazide-resistent H37Rv; 200 μg per mouse): 2.01 ± 0.18
Life duration (Tubazide-resistent H37Rv; 200 μg per mouse): 30.2 ± 2.8
Weight of the lung (Tubazide-resistent H37Rv; 200 μg per mouse): 580.4 ± 46.4
toxicity [8]: 150 mg/kg
